The results in this text go back to patent US7666875B2, “Hydantoin compounds” (Eisai R&D Management Co., Ltd., priority 2005, dated 2010).

pIC50: −log10 of the molar value.

The target of one test is T1, human T-bet (Homo sapiens, UniProt Q9UL17).
T1 construct: expressed in transfected cells; host or cells: engineered HEK cells (HEKT-bet)
T1 sequence (Q9UL17 1-535): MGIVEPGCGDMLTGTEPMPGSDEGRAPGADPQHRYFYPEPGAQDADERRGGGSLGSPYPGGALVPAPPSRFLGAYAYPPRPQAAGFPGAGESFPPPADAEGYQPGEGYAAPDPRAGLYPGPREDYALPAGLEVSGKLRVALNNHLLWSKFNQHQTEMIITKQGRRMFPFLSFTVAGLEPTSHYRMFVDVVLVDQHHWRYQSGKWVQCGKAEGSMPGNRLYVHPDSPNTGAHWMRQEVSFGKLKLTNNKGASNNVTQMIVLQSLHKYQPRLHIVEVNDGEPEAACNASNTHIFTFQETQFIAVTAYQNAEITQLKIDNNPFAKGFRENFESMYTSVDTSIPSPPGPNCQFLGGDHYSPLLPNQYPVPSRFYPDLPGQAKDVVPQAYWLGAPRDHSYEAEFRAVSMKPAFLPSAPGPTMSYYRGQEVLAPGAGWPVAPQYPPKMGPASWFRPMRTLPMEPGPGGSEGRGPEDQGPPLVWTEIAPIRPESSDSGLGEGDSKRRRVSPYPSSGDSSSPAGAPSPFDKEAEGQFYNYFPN
The test can be described thus: HEKT-bet-luc assay (T-bet dependent luciferase reporter in engineered HEK cells). Type of test: cell-based. The note with it: Table 2; HEKT-bet cells, compound 24 hours; IC50 normalized to reference ER-213038; read-out: IC50. Here is the method:
HEKT-bet-luc assay: This assay measures a T-bet dependent reporter (luciferase) activity in engineered HEK cells that express a human T-bet and a T-box responsive element driving luciferase reporter. HEKT-bet cells were plated at 2×10^4/well in 96-well plate and compound was added into cell culture for 24 hours. Luciferase activity was measured by adding 50 μl of Steady-Glo reagent (Promega) and samples were read in Victor V reader (PerkinElmer). The IC50 values were calculated utilizing a maximum value corresponding to the amount of luciferase in the absence of a test compound and a minimum value corresponding to a test compound value obtained at maximum inhibition.
Determination of Normalized HEKT-bet IC50 values: Compounds were assayed in microtiter plates. Each plate included a reference compound which was ER-213038. The un-normalized IC50 value for a particular compound was divided by the IC50 value determined for the reference compound in the same microtiter plate to provide a relative potency value. The relative potency value was then multiplied by the established potency of the reference compound to provide the normalized HEKT-bet IC50 value. […] The IC50 values provided herein were obtained using this normalization method.
(Reporter assays use an easily measured gene product as a stand-in for the process of interest.)
The term pIC50 denotes the IC50 on a negative log10 scale, so that one unit is a factor of ten. On to `COc1cc(CN2CCC3(CC2)C(=O)N(C/C=C/c2ccccc2)C(=O)N3Cc2ccc(-n3cccn3)cc2)cc(OC)c1` [compound 41], for which the pIC50 was 7.35.

Staying with this test, now noted: Table 3; HEKT-bet cells, compound 24 hours; IC50 normalized to reference ER-213038; read-out: IC50.
As for `COCCN1C(=O)N(CC#Cc2cccc(OC)c2)C(=O)C12CCN(Cc1ccccc1)CC2` [Example 82], the pIC50 is 6.19. Take `COc1cccc(CN2C(=O)N(Cc3ccc(Cl)cc3)C3(CCN(Cc4ccccc4)CC3)C2=O)c1` [Example 116]: the pIC50 is 5.74. `COc1cccc(CN2CCC3(CC2)C(=O)N(Cc2cc(OC)cc(OC)c2)C(=O)N3Cc2ccc3c(c2)nnn3C)c1` [Example 97]: the pIC50 is 5.97.

Consider `COCCN1C(=O)N(Cc2cccc(OC)c2)C(=O)C12CCN(Cc1cc(O)c(OC)c(OC)c1)CC2` [Example 118], for which the pIC50 was 5.73. Consider `COCCN1C(=O)N(Cc2cc(C(C)(C)C)cc(C(C)(C)C)c2)C(=O)C12CCN(Cc1ccccc1)CC2` [Example 114], for which the pIC50 was 5.76.

For the compound `COCCN1C(=O)N(Cc2cccc(OC)c2)C(=O)C12CCN(Cc1ccc(-c3cccs3)s1)CC2` [Example 120], the negative logarithm of the IC50 (pIC50) was 5.70. In the case of `COCCN1C(=O)N(CCCc2ccccc2)C(=O)C12CCN(Cc1ccccc1)CC2` [Example 90], the pIC50 is 6.08. Still for that read-out and setting: the result for `COCCN1C(=O)N(Cc2cccc(OC)c2)C(=O)C12CCN(Cc1cccc(-c3cccc(O)c3)c1)CC2` [Example 84] reads 6.17.

Staying with this test, now noted: Table 4; HEKT-bet cells, compound 24 hours; IC50 normalized to reference ER-213038; read-out: IC50.
On to `COCCN1C(=O)N(Cc2cccc(OC)c2)C(=O)C12CCN(Cc1ccc3ccccc3c1)CC2` [Example 161], for which the pIC50 is 6.77. Same read-out and setting: the result for `COCN1C(=O)N(C/C=C/c2ccccc2)C(=O)C12CCN(Cc1cc(OC)cc(OC)c1)CC2` [Example 136] reads 6.91. For `COc1cccc(CN2C(=O)N(Cc3ccccn3)C3(CCN(Cc4cccc5ccccc45)CC3)C2=O)c1` [Example 241], the pIC50 was 6.37. Regarding `COCCN1C(=O)N(Cc2cccc(OC)c2)C(=O)C12CCN(Cc1c(C)ccc3ccccc13)CC2` [Example 123], the pIC50 is 7.22. As to `COCCN1C(=O)N(Cc2cccc(OC)c2)C(=O)C12CCN(Cc1c3ccccc3cc3ccccc13)CC2` [Example 160], the pIC50 was 6.77. As to `COCCN1C(=O)N(Cc2cccc(OC)c2)C(=O)C12CCN(Cc1cccc(N3CCCC3)c1)CC2` [Example 176], the pIC50 was 6.69. `CCN1C(=O)N(Cc2cccc(OC)c2)C(=O)C12CCN(Cc1cc(OC)cc(OC)c1)CC2` [Example 137]: the pIC50 was 6.91. Turning to `COCCN1C(=O)N(Cc2cccc(OC)c2)C(=O)C12CCN(Cc1ccc(C)cc1C)CC2` [Example 199], the negative logarithm of the IC50 (pIC50) is 6.55. Same read-out and setting: the result for `CCN1C(=O)N(CCCOc2ccccc2)C(=O)C12CCN(Cc1cc(OC)cc(OC)c1)CC2` [Example 217] reads 6.46; that for `COc1cccc(CN2C(=O)N(CC=C(C)C)C3(CCN(Cc4cccc5ccccc45)CC3)C2=O)c1` [Example 265], 6.30.

As for `CCN1C(=O)N(C/C=C/c2ccccc2)C(=O)C12CCN(Cc1cccc(C)c1)CC2` [Example 125], the pIC50 was 7.17. With `COCCN1C(=O)N(Cc2cccc(OC)c2)C(=O)C12CCN(Cc1cccc(OC)c1)CC2` [Example 239], the pIC50 was 6.38. On the same count and under the same terms, with `COCCCN1C(=O)N(Cc2cccc(OC)c2)C(=O)C12CCN(Cc1cc(OC)cc(OC)c1)CC2` [Example 249] the figure was 6.36; with `COCCN1C(=O)N(Cc2cccc(OC)c2)C(=O)C12CCN(Cc1ccc(N(C)C)c3ccccc13)CC2` [Example 194], 6.58. Consider `CCOc1ccc2ccccc2c1CN1CCC2(CC1)C(=O)N(Cc1cccc(OC)c1)C(=O)N2CCOC` [Example 142], for which the pIC50 is 6.89. As to `COCCN1C(=O)N(Cc2cccc(OC)c2)C(=O)C12CCN(Cc1cccc(N(C)c3ccccc3)c1)CC2` [Example 276], the negative-log IC50 (pIC50) was 6.27.

Take `COc1cccc(CN2C(=O)N(CCO)C3(CCN(Cc4cc(OC)cc(OC)c4)CC3)C2=O)c1` [Example 200]: the pIC50 is 6.55. On the same count and under the same terms, the result for `COCCN1C(=O)N(CCCc2ccccc2)C(=O)C12CCN(Cc1ccc3ccccc3c1)CC2` [Example 284] reads 6.26.

Turning to `COCCN1C(=O)N(Cc2cccc(OC)c2)C(=O)C12CCN(Cc1ccc(C)c(C)c1)CC2` [Example 212], the pIC50 is 6.47.

With `COCCN1C(=O)N(Cc2cccc(OC)c2)C(=O)C12CCN(Cc1cccc(-c3ccccc3)c1)CC2` [Example 181], the pIC50 was 6.65.

With `COCCN1C(=O)N(Cc2cccc(OC)c2)C(=O)C12CCN(Cc1cccc(-c3ccc(O)cc3)c1)CC2` [Example 156], the pIC50 was 6.80. With `COCCN1C(=O)N(Cc2cccc(OC)c2)C(=O)C12CCN(Cc1ccc(-c3ccccc3)cc1)CC2` [Example 283], the pIC50 was 6.26. Same read-out and setting: the result for `COc1cccc(CN2C(=O)N(CCn3cccc3)C3(CCN(Cc4cccc5ccccc45)CC3)C2=O)c1` [Example 211] reads 6.48. As to `COCCN1C(=O)N(Cc2cccc(-c3ccccc3)c2)C(=O)C12CCN(Cc1ccccc1)CC2` [Example 243], the pIC50 was 6.37. In the case of `COCCN1C(=O)N(Cc2cccc(OC)c2)C(=O)C12CCN(Cc1cccc(OC)c1)CC2` [Example 178], the negative logarithm of the IC50 (pIC50) was 6.69. With `COCCN1C(=O)N(CCCOc2ccccc2)C(=O)C12CCN(Cc1cccc(OC)c1)CC2` [Example 220], the pIC50 was 6.44. On the same count and under the same terms, with `COCCN1C(=O)N(Cc2cccc(OC)c2)C(=O)C12CCN(Cc1c(C)cccc1C)CC2` [Example 141] the figure was 6.89; with `O=C1N(C/C=C/c2ccccc2)C(=O)C2(CCN(Cc3cccc4ccccc34)CC2)N1Cc1cccc2cccnc12` [Example 247], 6.36; with `CCN1C(=O)N(Cc2cccc(OC)c2)C(=O)C12CCN(Cc1cc(OC)cc(OC)c1)CC2` [Example 167], 6.73. `COc1cc(CN2CCC3(CC2)C(=O)N(Cc2cc(OC)cc(OC)c2)C(=O)N3Cc2ccc(-n3cccn3)cc2)cc(OC)c1` [Example 288]: the negative-log IC50 (pIC50) was 6.25. On to `COCCCN1C(=O)N(Cc2cc(OC)cc(OC)c2)C(=O)C12CCN(Cc1cc(OC)cc(OC)c1)CC2` [Example 207], for which the pIC50 is 6.50. `COCCN1C(=O)N(CCCOc2ccccc2)C(=O)C12CCN(Cc1cccc(C)c1)CC2` [Example 208]: the negative logarithm of the IC50 (pIC50) is 6.50.

As for `COc1cccc(CN2C(=O)N(Cc3cccc(OC)c3)C3(CCN(Cc4cccc5ccccc45)CC3)C2=O)c1` [Example 299], the pIC50 is 6.22. For the compound `COCCN1C(=O)N(Cc2ccc(OC(F)(F)F)cc2)C(=O)C12CCN(Cc1ccccc1)CC2` [Example 236], the pIC50 was 6.40. For `COCCN1C(=O)N(CCCOc2ccccc2)C(=O)C12CCN(Cc1cc(OC)cc(OC)c1)CC2` [Example 195], the pIC50 was 6.58. On to `CCN1C(=O)N(CCCc2ccccc2)C(=O)C12CCN(Cc1cccc(C)c1)CC2` [Example 252], for which the pIC50 is 6.35. With `COCCN1C(=O)N(Cc2cccc(OC)c2)C(=O)C12CCN(Cc1cc(-c3ccccc3)ccc1OC)CC2` [Example 209], the negative logarithm of the IC50 (pIC50) was 6.49. As to `COc1cccc(CN2C(=O)N(Cc3ccc(-n4cccn4)cc3)C3(CCN(Cc4cccc5ccccc45)CC3)C2=O)c1` [Example 140], the negative logarithm of the IC50 (pIC50) was 6.90. As for `O=C1N(C/C=C/c2ccccc2)C(=O)C2(CCN(Cc3cccc4ccccc34)CC2)N1CCO` [Example 204], the negative logarithm of the IC50 (pIC50) is 6.53. Same read-out and setting: with `COCCN1C(=O)N(Cc2cccc(OC)c2)C(=O)C12CCN(Cc1ccc(OC)c(OC)c1C)CC2` [Example 219] the figure was 6.44; with `COc1cc(CN2CCC3(CC2)C(=O)N(Cc2cc(OC)cc(OC)c2)C(=O)N3C)cc(OC)c1` [Example 144], 6.87.

Regarding `COCCN1C(=O)N(C/C=C/c2ccccc2)C(=O)C12CCN(Cc1cccc(OC)c1)CC2` [Example 132], the pIC50 was 7.00. As to `COCCN1C(=O)N(Cc2cccc(OC)c2)C(=O)C12CCN(Cc1cccc3cccnc13)CC2` [Example 242], the pIC50 is 6.37.

Regarding `O=C1N(C/C=C/c2ccccc2)C(=O)C2(CCN(Cc3cccc4ccccc34)CC2)N1Cc1cccnc1` [Example 185], the negative logarithm of the IC50 (pIC50) was 6.63. The same measure, in the same setting: with `COCCN1C(=O)N(Cc2cccc(OC)c2)C(=O)C12CCN(Cc1cc(OC)ccc1F)CC2` [Example 255] the figure was 6.34. Turning to `COCCN1C(=O)N(Cc2cccc(OC)c2)C(=O)C12CCN(Cc1cc3c(OC)cccc3cc1OC)CC2` [Example 180], the pIC50 is 6.65. Still for that read-out and setting: the result for `COCCN1C(=O)N(CCCc2ccccc2)C(=O)C12CCN(Cc1cccc(C)c1)CC2` [Example 248] reads 6.36.
